Assay results reported in patent US20250092065A1, “2-(INDAZOL-5-YL)-6-(PIPERIDIN-4-YL)-1,7-NAPHTHYRIDINE DERIVATIVES AND RELATED COMPOUNDS AS MODULATORS FOR SPLICING NUCLEIC ACIDS AND FOR THE TREATMENT OF PROLIFERATIVE DISEASES” (REMIX THERAPEUTICS INC., priority 2022, published 2025).
Like-named read-outs stand apart in the source and are kept apart here.

Tests used:
[1] = system: HTT mRNA; test: RT-qPCR splicing assay, HTT mRNA canonical (CJ) and alternative (AJ) junction; assay type: cell-based, human; details: Homo sapiens; for AC50: HTT alternative junction mRNA, read-out: HTT AJ (increase in AJ mRNA, AC50)
Description: (§1) Compounds described herein were used to modulate RNA transcript abundance in cells. The expression of a target mRNA was measured by detecting the formation of an exon-exon junction in the canonical transcript (CJ). A compound mediated exon-inclusion event was detected by observing an increase in formation of a new junction with an alternative exon (AJ). Real-time qPCR assays were used to detect these splicing switches and interrogate the potency of various compounds towards different target genes. A high-throughput real time quantitative PCR (RT-qPCR) assay was developed to measure these two isoforms of the mRNA (CJ and AJ) for exemplary genes, such as HTT, SMN2, and MYB, together with a control housekeeping gene, GAPDH or GUSB or PPIA, used for normalization. Briefly, the A673 or K562 cell line was treated with various compounds described herein (e.g., compounds of Formula (I)). After treatment, the levels of the HTT, MYB, or SMN2 mRNA targets were determined from each sample of cell lysate by cDNA synthesis followed by qPCR.
(§2) The A673 cell line was cultured in DMEM with 10% FBS. Cells were diluted with full growth media and plated in a 96-well plate (15,000 cells in 100 ul media per well). The plate was incubated at 37° C. with 5% CO2 for 24 hours to allow cells to adhere. An 11-point 3-fold serial dilution of the compounds was made in DMSO then diluted in media in an intermediate plate. Compounds were transferred from the intermediate plate to the cell plate with the top dose at a final concentration of 10 uM in the well. Final DMSO concentration was kept at or below 0.25%. The cell plate was returned to the incubator at 37° C. with 5% CO2 for an additional 24 hours.
(§3) The K562 cell line was cultured in IMDM with 10% FBS. For K562, cells were diluted with full growth media and plated in either a 96-well plate (50,000 cells in 50 uL media per well) or a 384-well plate (8,000-40,000 cells in 45 uL media per well). An 11-point 3-fold serial dilution of the compounds were made in DMSO then diluted in media in an intermediate plate. Compound was transferred from the intermediate plate to the cell plate with the top dose at a final concentration of 10 uM in the well. Final DMSO concentration was kept at or below 0.25%. Final volume was 100 uL for 96-well plate and 50 uL for 384-well plate. The cell plate was then placed in an incubator at 37° C. with 5% CO2 for 24 hours.
(§4) The cells were then gently washed with 50 uL-100 uL cold PBS before proceeding to addition of lysis buffer. 30 uL-50 μL of room temperature lysis buffer with DNAse I (and optionally RNAsin) was added to each well. Cells were shaken/mixed thoroughly at room temperature for 5-10 minutes for lysis to take place and then 3 uL-5 μL of room temperature stop solution was added and wells were shaken/mixed again. After 2-5 minutes, the cell lysate plate was transferred to ice for RT-qPCR reaction setup. The lysates could also be frozen at −80° C. for later use.
(§5) In some cases, a direct lysis buffer was used. An appropriate volume of 3× lysis buffer (10 mM Tris, 150 mM NaCl, 1.5%-2.5% Igepal and 0.1-1 U/uL RNAsin, pH 7.4) was directly added to either K562 or A673 cells in media and mixed by pipetting 3 times. The plates were then incubated at room temperature with shaking/rocking for 20-50 minutes to allow for lysis to take place. After this time, the cell lysate plate was transferred to ice to set up for the RT-qPCR reactions. The lysates could also be frozen at −80° C. for later use.
(§6) To set up 10 uL RT-qPCR reactions, cell lysates were transferred to 384-well qPCR plates containing the master mix according to the table below. The plates were sealed, gently vortexed, and spun down before the run. The volumes were adjusted accordingly in some instances where the reaction was carried in 20 μL. The table below summarizes the components of the RT-qPCR reactions:
(§7) The RT-qPCR reaction was performed using a QuantStudio (ThermoFisher) under the following fast cycling conditions. […]

[2] = system: Target C; test: HiBiT protein abundance assay, Target C (K562 HiBiT knock-in); assay type: cell-based, human; details: HiBiT knock-in K562 cells, 24 hours, top dose 10 μM
Description: (§8) Cells were maintained in IMIDM with 10% FBS. Before the assay, cells were diluted with […] growth media (IMIDM+[…] media) and were seeded in a 384-well plate at a density of 10000 cells/well (for each cell line listed in Table 6). Each compound was prepared as a 10-point 3-fold serial dilution in DMSO with the top dose at a final concentration of 10 μM in the well. Unmodified K562 cells were added at the previously specified density with DMSO to serve as an assay baseline and positive control (PC) and DMSO only with the respective modified cell lines was added to the negative control (NC) columns. Final DMSO concentration was kept at or below 0.25%. Treated cell plates were placed in an incubator at 37° C. with […] for 24 hours. After 24 hours, 25 μL of Complete HiBit Lytic reagent was added to each well at room temperature (e.g. one plate requiring 10 mL Lytic Buffer, 100 μL LgBiT Protein, 200 μL Lytic Substrate), shaken for 5 minutes at 600 RPM, then left to sit for 10 minutes for signal to stabilize before reading on a Spark Cyto plate reader (Tecan) with a 500 ms measurement time.
(§9) To determine compound effects on protein abundance of each target in Table 6, the percent response for each respective cell line was calculated at each compound concentration as follows:
(§10) % response=100*(S−PC)(NC−PC)
(§11) For the normalized response at each concentration, a four-parameter logistical regression was fit to the data and the response was interpolated at the […] to determine a concentration for protein abundance at 50% (IC50) the untreated control.

[3] = system: MYB mRNA; test: RT-qPCR splicing assay, MYB mRNA canonical (CJ) and alternative (AJ) junction; assay type: cell-based, human; details: Homo sapiens; for AC50: MYB alternative junction mRNA, read-out: MYB AJ (increase in AJ mRNA, AC50)
Description: as §1, §2, §3, §4, §5, §6, §7

[4] = system: K562 cells; test: Cell Titer Glo 2.0 cell viability (toxicity) assay, K562; details: 500 cells/well, 72 hours
[5] = system: MYB; test: HiBiT protein abundance assay, MYB (K562 HiBiT knock-in); assay type: cell-based, human; details: HiBiT knock-in K562 cells, 24 hours, top dose 10 μM
Description: (§12) Compounds described herein were used to screen for effects on quantitative protein abundance using a HiBit assay system (Promega). Quantitative protein abundance was determined by measuring the protein levels of HiBit-tagged protein targets expressed in cell culture via luminescence using the Nano-Glo HiBiT Lytic Detection System, which uses a split complementation assay format to reconstitute NanoBiT enzyme to generate a luminescent signal. A protein abundance assay was developed such that endogenous protein targets could be modified with the HiBiT peptide tag and their abundance could be assessed after compound treatment. Briefly, K562 cell lines containing a HiBiT-modification were treated with various compounds described herein (e.g., compounds of Formulas (I), or (II)). After treatment for 24 hours, the protein abundance of a specific target was determined by measuring luminescence.
as §8, §9, §10, §11

[6] = system: SMN2 mRNA; test: RT-qPCR splicing assay, SMN2 mRNA; assay type: cell-based, human; details: Homo sapiens, canonical junction qPCR panel, Table 4; read-out: SMN2 IC50 (decrease in CJ mRNA levels)
Description: as §1, §2, §3, §4, §5, §6, §7

[7] = system: HTT; test: HiBiT protein abundance assay, HTT (K562 HiBiT knock-in); assay type: cell-based, human; details: HiBiT knock-in K562 cells, 24 hours, top dose 10 μM
Description: as §12, §8, §9, §10, §11

[8] = HTT canonical junction mRNA, RT-qPCR, read-out: HTT CJ (decrease in CJ mRNA levels, IC50)
[9] = canonical junction qPCR panel, Table 4, read-out: HTT IC50 (decrease in CJ mRNA levels)
[10] = MYB canonical junction mRNA, RT-qPCR, read-out: MYB CJ (decrease in CJ mRNA levels, IC50)
[11] = canonical junction qPCR panel, Table 4, read-out: MYB IC50 (decrease in CJ mRNA levels)

IC50 [2]	IC50 [5]	IC50 [7]	Structure (SMILES)	AC50 ([1]; RT-qPCR)	IC50 [1, 8]	IC50 [1, 9]	AC50 ([3]; RT-qPCR)	IC50 [3, 10]	IC50 [3, 11]	Effect of Exemplary Compounds on Cell Viability, K562 [4]	IC50 [6]
< 100 nM	< 100 nM	< 100 nM	Cc1nc2c(F)c(O)c(-c3ccc4nc(N5CC[C@@H](NC(C)(C)C)C5)ccc4n3)cc2o1 (single isomer, unassigned) [Compound 256]	< 100 nM	< 100 nM	< 100 nM	< 100 nM	< 100 nM	< 100 nM	A (A represents <100 nM)	< 100 nM
> 10000 nM	> 10000 nM	> 10000 nM	CN(C(=O)Nc1cn[nH]c1)c1cc2nc(N3CCNCC3)ccc2cn1 [Compound 110]								
> 10000 nM	> 10000 nM	> 10000 nM	O=C(NCc1ccn[nH]1)Nc1cc2nc(N3CCNCC3)ccc2cn1 [Compound 112]								

Further lines, the compound ahead of its results:

Structure (SMILES)	IC50 [2]	IC50 [5]	IC50 [7]	AC50 ([1]; RT-qPCR)	IC50 [1, 8]	IC50 [1, 9]	AC50 ([3]; RT-qPCR)	IC50 [3, 10]	IC50 [3, 11]	Effect of Exemplary Compounds on Cell Viability, K562 [4]	IC50 [6]
O=C(Nc1cn[nH]c1)Nc1cc2nc(N3CCNCC3)ccc2cn1 [Compound 111]	> 10000 nM	> 10000 nM	> 10000 nM								
CN1CCC(N(C)c2ccc3nc(-c4cc5cn(C)nc5cc4O)ccc3n2)CC1 [Compound 126]	100 to 1000 nM	100 to 1000 nM	100 to 1000 nM	100 to 1000 nM	100 to 1000 nM	100 to 1000 nM	100 to 1000 nM	100 to 1000 nM	100 to 1000 nM		< 100 nM
Cn1cc2cc(-c3ccc4nc(N5C[C@H]6CC[C@@H](C5)N6)ccc4n3)c(O)cc2n1 [Compound 135]	1000 to 10000 nM	100 to 1000 nM	1000 to 10000 nM	1000 to 10000 nM	1000 to 10000 nM	1000 to 10000 nM	100 to 1000 nM	100 to 1000 nM	100 to 1000 nM		< 100 nM
